Counter-ions that a name gives are not always drawn.

Our source for the Ki and IC50 values is BindingDB's records for doi:10.1016/j.bmc.2020.115644 (Umass Medical School, 2020).

Experiment [1] concerns the target T1, NAD(+) hydrolase SARM1 (Homo sapiens, UniProt Q6SZW1).
T1 sequence (Q6SZW1 whole entry): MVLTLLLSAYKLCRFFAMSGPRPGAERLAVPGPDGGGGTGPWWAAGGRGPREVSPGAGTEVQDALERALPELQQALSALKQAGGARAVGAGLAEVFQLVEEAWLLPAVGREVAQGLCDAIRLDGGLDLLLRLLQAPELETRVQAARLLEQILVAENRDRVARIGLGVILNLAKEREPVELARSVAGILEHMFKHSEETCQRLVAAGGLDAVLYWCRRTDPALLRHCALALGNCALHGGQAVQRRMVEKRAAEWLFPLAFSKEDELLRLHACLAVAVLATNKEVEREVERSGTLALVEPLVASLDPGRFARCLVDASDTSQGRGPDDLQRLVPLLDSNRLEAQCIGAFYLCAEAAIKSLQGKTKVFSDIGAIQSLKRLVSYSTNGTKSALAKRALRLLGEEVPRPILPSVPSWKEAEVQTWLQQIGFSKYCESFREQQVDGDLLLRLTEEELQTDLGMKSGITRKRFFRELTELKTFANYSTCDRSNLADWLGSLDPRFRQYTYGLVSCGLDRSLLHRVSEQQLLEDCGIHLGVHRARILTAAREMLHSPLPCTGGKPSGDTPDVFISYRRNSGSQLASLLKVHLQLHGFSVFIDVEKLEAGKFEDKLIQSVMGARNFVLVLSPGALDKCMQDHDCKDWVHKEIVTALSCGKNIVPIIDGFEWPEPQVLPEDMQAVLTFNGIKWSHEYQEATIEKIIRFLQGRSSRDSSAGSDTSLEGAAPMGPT
Description: Noncompetitive inhibition of recombinant human SARM1 TIR domain (561 to 724 residues) expressed in Escherichia coli C43 (DE3) cells lysates assessed as EADPR formation using ENAD as substrate preincubated for 20 mins followed by ENAD addition and measured at 15 sec interval for 1 hr.

In experiment [2] the target is T1, NAD(+) hydrolase SARM1. In words: Inhibition of recombinant human SARM1 TIR domain (561 to 724 residues) expressed in Escherichia coli C43 (DE3) cells lysates using ENAD as substrate preincubated for 20 mins followed by ENAD addition and measured at 15 sec interval for 15 mins.

The Ki is the dissociation constant of the complex between target and ligand, obtained from inhibition or displacement. For orientation: IC50 means the concentration needed to halve the response being measured. As to `C[C@H]1c2cccc(O)c2C(=O)C2=C(O)[C@]3(O)C(=O)C(C(N)=O)=C(O)[C@@H](N(C)C)[C@@H]3[C@@H](O)[C@@H]21` [DOXYCYCLINE HYDROCHLORIDE], the Ki in experiment [1] stood at 280 µM. In experiment [2], the IC50 worked out at 145 µM. In the case of `Nc1ccc(/N=N/c2ccccc2)c(N)n1` [NC 150], in experiment [2], the IC50 was determined as 145 µM.
